We go through 1 molecule from patent publication US20170292066A1, “Synthetic Acid Compositions Alternatives to Conventional Acids in the Oil and Gas Industry” (Fluid Energy Group Ltd., priority 2014, published 2017).

The nature of this series: Biodegradability.

SMILES strings stand for the structures.

On to `Cl.NC(N)=O` [urea hydrochloride, Urea Hydrochloride], for which the Biodegradability entry is listed as “maintain the same biodegradability function”.
